Source: the NIST ThermoML archive (doi:10.1021/je034087q)

Assay: xn = mol fraction of the nth substance listed
Settings: 323.15 K

CCCCC [pentane] + O=C=O
Settings	mass density [kg/m3]
9400 kPa, Fluid (supercritical or subcritical phases), x2 = 0.939	522
9410 kPa, Fluid (supercritical or subcritical phases), x2 = 0.916	590
9440 kPa, Fluid (supercritical or subcritical phases), x2 = 0.87	630
9480 kPa, Fluid (supercritical or subcritical phases), x2 = 0.901	601
9510 kPa, Fluid (supercritical or subcritical phases), x2 = 0.939	534
9550 kPa, Fluid (supercritical or subcritical phases), x2 = 0.791	688
9560 kPa, Fluid (supercritical or subcritical phases), x2 = 0.671	726
9600 kPa, Fluid (supercritical or subcritical phases), x2 = 0.901	607
9630 kPa, Fluid (supercritical or subcritical phases), x2 = 0.916	603
9630 kPa, Fluid (supercritical or subcritical phases), x2 = 0.939	545
9670 kPa, Fluid (supercritical or subcritical phases), x2 = 0.87	638
9740 kPa, Fluid (supercritical or subcritical phases), x2 = 0.214	631
9740 kPa, Fluid (supercritical or subcritical phases), x2 = 0.901	613
9790 kPa, Fluid (supercritical or subcritical phases), x2 = 0.939	558
9920 kPa, Fluid (supercritical or subcritical phases), x2 = 0.901	619
9940 kPa, Fluid (supercritical or subcritical phases), x2 = 0.916	615
9970 kPa, Fluid (supercritical or subcritical phases), x2 = 0.939	572
10000 kPa, Fluid (supercritical or subcritical phases), x2 = 0.901	622
10010 kPa, Fluid (supercritical or subcritical phases), x2 = 0.87	645
10080 kPa, Fluid (supercritical or subcritical phases), x2 = 0.901	626
10160 kPa, Fluid (supercritical or subcritical phases), x2 = 0.901	628
10170 kPa, Fluid (supercritical or subcritical phases), x2 = 0.939	586
10240 kPa, Fluid (supercritical or subcritical phases), x2 = 0.36	651
10270 kPa, Fluid (supercritical or subcritical phases), x2 = 0.901	633
10290 kPa, Fluid (supercritical or subcritical phases), x2 = 0.791	697
10300 kPa, Fluid (supercritical or subcritical phases), x2 = 0.916	628
10420 kPa, Fluid (supercritical or subcritical phases), x2 = 0.87	654
10420 kPa, Fluid (supercritical or subcritical phases), x2 = 0.901	637
10440 kPa, Fluid (supercritical or subcritical phases), x2 = 0.939	600
10620 kPa, Fluid (supercritical or subcritical phases), x2 = 0.901	642
10710 kPa, Fluid (supercritical or subcritical phases), x2 = 0.671	734
10730 kPa, Fluid (supercritical or subcritical phases), x2 = 0.916	642
10760 kPa, Fluid (supercritical or subcritical phases), x2 = 0.901	647
10790 kPa, Fluid (supercritical or subcritical phases), x2 = 0.939	616
10850 kPa, Fluid (supercritical or subcritical phases), x2 = 0.87	661
10950 kPa, Fluid (supercritical or subcritical phases), x2 = 0.901	652
11040 kPa, Fluid (supercritical or subcritical phases), x2 = 0.791	703
11060 kPa, Fluid (supercritical or subcritical phases), x2 = 0.214	634
11220 kPa, Fluid (supercritical or subcritical phases), x2 = 0.901	656
11230 kPa, Fluid (supercritical or subcritical phases), x2 = 0.36	654
11250 kPa, Fluid (supercritical or subcritical phases), x2 = 0.939	635
11260 kPa, Fluid (supercritical or subcritical phases), x2 = 0.916	657
11320 kPa, Fluid (supercritical or subcritical phases), x2 = 0.939	639
11440 kPa, Fluid (supercritical or subcritical phases), x2 = 0.901	661
11450 kPa, Fluid (supercritical or subcritical phases), x2 = 0.87	670
11610 kPa, Fluid (supercritical or subcritical phases), x2 = 0.901	666
11890 kPa, Fluid (supercritical or subcritical phases), x2 = 0.901	672
11910 kPa, Fluid (supercritical or subcritical phases), x2 = 0.791	713
11930 kPa, Fluid (supercritical or subcritical phases), x2 = 0.916	672
11970 kPa, Fluid (supercritical or subcritical phases), x2 = 0.87	678
11980 kPa, Fluid (supercritical or subcritical phases), x2 = 0.671	740
12080 kPa, Fluid (supercritical or subcritical phases), x2 = 0.901	675
12440 kPa, Fluid (supercritical or subcritical phases), x2 = 0.901	681
12460 kPa, Fluid (supercritical or subcritical phases), x2 = 0.36	656
12560 kPa, Fluid (supercritical or subcritical phases), x2 = 0.214	638
12580 kPa, Fluid (supercritical or subcritical phases), x2 = 0.87	687
12760 kPa, Fluid (supercritical or subcritical phases), x2 = 0.901	686
12790 kPa, Fluid (supercritical or subcritical phases), x2 = 0.916	687
13000 kPa, Fluid (supercritical or subcritical phases), x2 = 0.901	690
13060 kPa, Fluid (supercritical or subcritical phases), x2 = 0.791	721
13280 kPa, Fluid (supercritical or subcritical phases), x2 = 0.901	695
13290 kPa, Fluid (supercritical or subcritical phases), x2 = 0.87	695
13530 kPa, Fluid (supercritical or subcritical phases), x2 = 0.901	698
13560 kPa, Fluid (supercritical or subcritical phases), x2 = 0.36	659
13800 kPa, Fluid (supercritical or subcritical phases), x2 = 0.671	749
13800 kPa, Fluid (supercritical or subcritical phases), x2 = 0.901	701
13860 kPa, Fluid (supercritical or subcritical phases), x2 = 0.214	640
13860 kPa, Fluid (supercritical or subcritical phases), x2 = 0.916	705
14040 kPa, Fluid (supercritical or subcritical phases), x2 = 0.87	704
14050 kPa, Fluid (supercritical or subcritical phases), x2 = 0.901	705
14440 kPa, Fluid (supercritical or subcritical phases), x2 = 0.901	712
14470 kPa, Fluid (supercritical or subcritical phases), x2 = 0.916	715
14510 kPa, Fluid (supercritical or subcritical phases), x2 = 0.791	732
14700 kPa, Fluid (supercritical or subcritical phases), x2 = 0.901	714
14730 kPa, Fluid (supercritical or subcritical phases), x2 = 0.87	713
14810 kPa, Fluid (supercritical or subcritical phases), x2 = 0.36	662
15220 kPa, Fluid (supercritical or subcritical phases), x2 = 0.214	642
Liquid, Other PVT measurement, x2 = 0.214	603
Liquid, Other PVT measurement, x2 = 0.36	632
Liquid, Other PVT measurement, x2 = 0.671	702
Liquid, Other PVT measurement, x2 = 0.791	651
Liquid, Other PVT measurement, x2 = 0.87	573
Liquid, Other PVT measurement, x2 = 0.901	511
